Tests used:
[1] = test system: inflammatory responses elicited by topically applied phorbol myristate acetate (PMA) or topically applied arachidonic acid (AA); experiment: Topical mouse ear assay (TME), edema; assay type: in vivo; conditions: PMA or AA challenge (which not stated), N=5 mice/group
Experimental: TABLE II Topical Mouse Ear Assay
Method: The right ears of mice (5 mice per group) were treated topically with either […] or 1000 μg AA alone or with the test compound in 25 μl of vehicle. The vehicle was water/pyridine/acetone (1:2:97). A control group of mice received the vehicle only. The mice were allowed food and water ad libitum during the treatment period; 2 hours for AA and 4 hours for PMA. The mice were sacrificed by cervical dislocation and a 6 mm diameter disc of tissue punched from both the treated and untreated ears. The tissue biopsies were immediately weighed and the weight increase of the treated ear relative to the weight of the untreated ear determined.
All of the data are expressed as the mean±SEM, N=5 mice/group.

[2] = test system: inflammatory responses elicited by topically applied phorbol myristate acetate (PMA) or topically applied arachidonic acid (AA); conditions: previously established; cited from earlier work
[3] = test system: erythema induced on the skin of guinea pigs by UV radiation; experiment: U.V. erythema assay; assay type: in vivo; conditions: topical, mean of 3 animals
Experimental: The U.V. erythema assay by which topical anti-inflammatory activity is determined, is based on the ability of the compounds of Formula I to inhibit the erythema induced on the skin of guinea pigs by UV radiation. It has been substantiated by recent studies that prostaglandin synthesis and the release thereof may be the primary process involved in the production of erythema. A protocol of the assay and some results thereof are summarized below in Table III.
Guinea pigs were depilated and stabilized for 30 minutes. Following anesthesia with Nembutal (35 mg/kg), they were exposed to a U.V. lamp for 45 minutes at a distance of seven inches from the abdominal surface. Compound was applied topically (seven applications in a total of 0.1 ml vehicle) 15 minutes post exposure. […]
Vehicle 1774--85% EtOH, 12% Propylene Glycol, 3% Methyl Salicylate
A numerical value 0-5 was assigned to the degree of erythema observed under standard lighting conditions. Drug effect on the developing erythema was calculated as follows: [formula] Results: % Inhibition of Erythema by (a) N-(2-hydroxy-5-methoxybenzyl)aniline

COc1ccc(O)c(CNc2cccs2)c1 [A, 2-(2-hydroxy-5-methoxybenzylamino)thiophene]
Edema (% inhibition) ([1]; dosage 300 μg): 77%

COc1ccc(O)c(CNc2cccc3nsnc23)c1 [B, 4-(2-hydroxy-5-methoxybenzylamino)-2,1,3-benzothiadiazole]
Edema (% inhibition) ([1]; dosage 300 μg): 44%

COc1ccc(O)c(CNc2nc3ccccc3[nH]2)c1 [C, 2-(2-hydroxy-5-methoxybenzylamino)benzimidazole]
Edema (% inhibition) ([1]; dosage 300 μg): 80%

C[C@@H]1C[C@H]2[C@@H]3CCC4=CC(=O)C=C[C@]4(C)[C@@]3(F)[C@@H](O)C[C@]2(C)[C@@]1(O)C(=O)CO [Dexamethasone, reference compound]
Edema (% inhibition) ([1]; dosage 150 μg): 100%
activity in the topical mouse ear assay [2]: active

COc1ccc2c(c1)c(CC(=O)O)c(C)n2C(=O)c1ccc(Cl)cc1 [Indomethacin, reference compound]
Edema (% inhibition) ([1]; dosage 1000 μg): 88%
activity in the topical mouse ear assay [2]: active

COc1ccc(O)c(CNc2ccccc2)c1 [N-(2-hydroxy-5-methoxybenzyl)aniline]
% Inhibition of Erythema, 2 Hr. ([3]; 0.1 mg): 19.3%
% Inhibition of Erythema, 3 Hr. ([3]; 0.1 mg): 16.7%
% Inhibition of Erythema, 4 Hr. ([3]; 0.1 mg): 15.0%
% Inhibition of Erythema, 6 Hr. ([3]; 0.1 mg): 6.7%
% Inhibition of Erythema, 24 Hr. ([3]; 0.1 mg): 0%
% Inhibition of Erythema, 2 Hr. ([3]; 0.3 mg): 55.3%
% Inhibition of Erythema, 3 Hr. ([3]; 0.3 mg): 50.0%
% Inhibition of Erythema, 4 Hr. ([3]; 0.3 mg): 46.7%
% Inhibition of Erythema, 6 Hr. ([3]; 0.3 mg): 35.0%
% Inhibition of Erythema, 24 Hr. ([3]; 0.3 mg): 0%
% Inhibition of Erythema, 2 Hr. ([3]; 1.0 mg): 80.3%
% Inhibition of Erythema, 3 Hr. ([3]; 1.0 mg): 91.7%
% Inhibition of Erythema, 4 Hr. ([3]; 1.0 mg): 76.7%
% Inhibition of Erythema, 6 Hr. ([3]; 1.0 mg): 63.3%
% Inhibition of Erythema, 24 Hr. ([3]; 1.0 mg): 26.7%
% Inhibition of Erythema, 2 Hr. ([3]; 3.0 mg): 100%
% Inhibition of Erythema, 3 Hr. ([3]; 3.0 mg): 100%
% Inhibition of Erythema, 4 Hr. ([3]; 3.0 mg): 63.3%
% Inhibition of Erythema, 6 Hr. ([3]; 3.0 mg): 43.3%
% Inhibition of Erythema, 24 Hr. ([3]; 3.0 mg): 33.3%

— patent US4578390A, “Hydroxybenzylamino derivatives as anti-inflammatory agents” (Merck & Co., Inc., priority 1983, dated 1986)
